# ChEMBL document CHEMBL1149678, “Synthesis and structure-activity relationship of RXR antagonists based on the diazepinylbenzoic acid structure” (Bioorg Med Chem Lett, 2007)
# Biological target: T1, Retinoic acid receptor RXR-alpha (Homo sapiens, UniProt P19793)
# T1 sequence (P19793 whole entry): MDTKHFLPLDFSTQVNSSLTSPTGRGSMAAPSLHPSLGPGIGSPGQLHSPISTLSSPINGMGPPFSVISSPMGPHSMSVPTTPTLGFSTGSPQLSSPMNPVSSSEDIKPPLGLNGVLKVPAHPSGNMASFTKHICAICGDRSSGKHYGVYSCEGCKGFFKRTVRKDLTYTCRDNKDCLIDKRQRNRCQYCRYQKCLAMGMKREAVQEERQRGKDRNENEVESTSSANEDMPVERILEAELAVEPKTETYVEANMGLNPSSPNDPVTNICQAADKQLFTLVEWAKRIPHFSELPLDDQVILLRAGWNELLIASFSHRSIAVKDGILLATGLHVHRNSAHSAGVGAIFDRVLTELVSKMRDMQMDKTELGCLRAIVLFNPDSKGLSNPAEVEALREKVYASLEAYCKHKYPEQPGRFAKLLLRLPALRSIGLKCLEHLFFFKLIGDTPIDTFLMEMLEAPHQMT
# Test: Antagonist activity at human RXRalpha expressed in […] cells assessed as inhibition of LG-100268-induced transactivation
# Type: functional, cell-based, HEK293
row,IC50 [nM],SMILES
1,1400,CN1c2ccc(NS(=O)(=O)c3ccccc3)cc2N=C(c2ccc(C(=O)O)cc2)c2cc3c(cc21)C(C)(C)CCC3(C)C
2,4100,CN1c2ccc(NS(=O)(=O)c3cc(C(F)(F)F)cc(C(F)(F)F)c3)cc2N=C(c2ccc(C(=O)O)cc2)c2cc3c(cc21)C(C)(C)CCC3(C)C
3,420,CCN1c2ccc(NS(=O)(=O)c3ccc(F)cc3)cc2N=C(c2ccc(C(=O)O)cc2)c2cc3c(cc21)C(C)(C)CCC3(C)C
4,320,CCCCS(=O)(=O)Nc1ccc2c(c1)N=C(c1ccc(C(=O)O)cc1)c1cc3c(cc1N2CC)C(C)(C)CCC3(C)C
5,4500,CN1c2ccc(NC(=O)C3CCCCC3)cc2N=C(c2ccc(C(=O)O)cc2)c2cc3c(cc21)C(C)(C)CCC3(C)C
6,3900,CCCN1c2ccc(NC(=O)Cc3ccc(F)cc3)cc2N=C(c2ccc(C(=O)O)cc2)c2cc3c(cc21)C(C)(C)CCC3(C)C
7,5200,CCCNC(=O)Nc1ccc2c(c1)N=C(c1ccc(C(=O)O)cc1)c1cc3c(cc1N2C)C(C)(C)CCC3(C)C
8,1200,CCN1c2ccc(NC(=O)Cc3ccc(F)cc3)cc2N=C(c2ccc(C(=O)O)cc2)c2cc3c(cc21)C(C)(C)CCC3(C)C
9,2000,CN1c2ccc(NC(=O)c3ccccc3)cc2N=C(c2ccc(C(=O)O)cc2)c2cc3c(cc21)C(C)(C)CCC3(C)C
10,5600,CC(C)C(=O)Nc1ccc2c(c1)N=C(c1ccc(C(=O)O)cc1)c1cc3c(cc1N2C)C(C)(C)CCC3(C)C
11,> 100000,CNc1ccc2c(c1)N=C(c1ccc(C(=O)O)cc1)c1cc3c(cc1N2C)C(C)(C)CCC3(C)C
12,4400,CN1c2ccc(NS(C)(=O)=O)cc2N=C(c2ccc(C(=O)O)cc2)c2cc3c(cc21)C(C)(C)CCC3(C)C

# Further lines, the compound ahead of its results:
row,SMILES,IC50 [nM]
1,CCS(=O)(=O)Nc1ccc2c(c1)N=C(c1ccc(C(=O)O)cc1)c1cc3c(cc1N2C)C(C)(C)CCC3(C)C,4900
2,CN1c2ccc(NS(=O)(=O)c3ccc(-c4ccccc4)cc3)cc2N=C(c2ccc(C(=O)O)cc2)c2cc3c(cc21)C(C)(C)CCC3(C)C,6200
3,CNC(=O)Nc1ccc2c(c1)N=C(c1ccc(C(=O)O)cc1)c1cc3c(cc1N2C)C(C)(C)CCC3(C)C,14000
4,CN1c2ccc(NC(=O)/C=C/c3ccccc3)cc2N=C(c2ccc(C(=O)O)cc2)c2cc3c(cc21)C(C)(C)CCC3(C)C,5200
5,CN1c2ccc(NS(=O)(=O)c3ccc(C(F)(F)F)cc3)cc2N=C(c2ccc(C(=O)O)cc2)c2cc3c(cc21)C(C)(C)CCC3(C)C,2200
6,CN1c2ccc(NS(=O)(=O)Cc3ccccc3)cc2N=C(c2ccc(C(=O)O)cc2)c2cc3c(cc21)C(C)(C)CCC3(C)C,5200
7,COc1ccc(S(=O)(=O)Nc2ccc3c(c2)N=C(c2ccc(C(=O)O)cc2)c2cc4c(cc2N3C)C(C)(C)CCC4(C)C)cc1,2500
8,CN1c2ccc(NS(=O)(=O)c3ccccc3C(F)(F)F)cc2N=C(c2ccc(C(=O)O)cc2)c2cc3c(cc21)C(C)(C)CCC3(C)C,2600
9,CCCN1c2ccc(NS(=O)(=O)CCC)cc2N=C(c2ccc(C(=O)O)cc2)c2cc3c(cc21)C(C)(C)CCC3(C)C,840
10,CCCS(=O)(=O)Nc1ccc2c(c1)N=C(c1ccc(C(=O)O)cc1)c1cc3c(cc1N2CC)C(C)(C)CCC3(C)C,570
11,CCCN1c2ccc(NS(=O)(=O)c3ccc(F)cc3)cc2N=C(c2ccc(C(=O)O)cc2)c2cc3c(cc21)C(C)(C)CCC3(C)C,810
12,CCNC(=O)Nc1ccc2c(c1)N=C(c1ccc(C(=O)O)cc1)c1cc3c(cc1N2C)C(C)(C)CCC3(C)C,7400

# Biological target: T1, Retinoic acid receptor RXR-alpha
# Test: Antagonist activity at human RXRalpha expressed in […] cells assessed as inhibition of 9-cis-retinoic acid-induced transactivation
# Type: functional, cell-based, HEK293
row,IC50 [nM],SMILES
1,510,CN1c2ccc(NS(=O)(=O)c3ccccc3)cc2N=C(c2ccc(C(=O)O)cc2)c2cc3c(cc21)C(C)(C)CCC3(C)C
2,1200,CN1c2ccc(NS(=O)(=O)c3cc(C(F)(F)F)cc(C(F)(F)F)c3)cc2N=C(c2ccc(C(=O)O)cc2)c2cc3c(cc21)C(C)(C)CCC3(C)C
3,220,CCN1c2ccc(NS(=O)(=O)c3ccc(F)cc3)cc2N=C(c2ccc(C(=O)O)cc2)c2cc3c(cc21)C(C)(C)CCC3(C)C
4,200,CCCCS(=O)(=O)Nc1ccc2c(c1)N=C(c1ccc(C(=O)O)cc1)c1cc3c(cc1N2CC)C(C)(C)CCC3(C)C
5,1500,CN1c2ccc(NC(=O)C3CCCCC3)cc2N=C(c2ccc(C(=O)O)cc2)c2cc3c(cc21)C(C)(C)CCC3(C)C
6,3100,CCCN1c2ccc(NC(=O)Cc3ccc(F)cc3)cc2N=C(c2ccc(C(=O)O)cc2)c2cc3c(cc21)C(C)(C)CCC3(C)C
7,6200,CCCNC(=O)Nc1ccc2c(c1)N=C(c1ccc(C(=O)O)cc1)c1cc3c(cc1N2C)C(C)(C)CCC3(C)C
8,720,CCN1c2ccc(NC(=O)Cc3ccc(F)cc3)cc2N=C(c2ccc(C(=O)O)cc2)c2cc3c(cc21)C(C)(C)CCC3(C)C
9,900,CN1c2ccc(NC(=O)c3ccccc3)cc2N=C(c2ccc(C(=O)O)cc2)c2cc3c(cc21)C(C)(C)CCC3(C)C
10,1900,CC(C)C(=O)Nc1ccc2c(c1)N=C(c1ccc(C(=O)O)cc1)c1cc3c(cc1N2C)C(C)(C)CCC3(C)C
11,> 10000,CNc1ccc2c(c1)N=C(c1ccc(C(=O)O)cc1)c1cc3c(cc1N2C)C(C)(C)CCC3(C)C
12,2400,CN1c2ccc(NS(C)(=O)=O)cc2N=C(c2ccc(C(=O)O)cc2)c2cc3c(cc21)C(C)(C)CCC3(C)C

# Continued, compound first:
row,SMILES,IC50 [nM]
1,CCS(=O)(=O)Nc1ccc2c(c1)N=C(c1ccc(C(=O)O)cc1)c1cc3c(cc1N2C)C(C)(C)CCC3(C)C,840
2,CN1c2ccc(NS(=O)(=O)c3ccc(-c4ccccc4)cc3)cc2N=C(c2ccc(C(=O)O)cc2)c2cc3c(cc21)C(C)(C)CCC3(C)C,1300
3,CNC(=O)Nc1ccc2c(c1)N=C(c1ccc(C(=O)O)cc1)c1cc3c(cc1N2C)C(C)(C)CCC3(C)C,15000
4,CN1c2ccc(NC(=O)/C=C/c3ccccc3)cc2N=C(c2ccc(C(=O)O)cc2)c2cc3c(cc21)C(C)(C)CCC3(C)C,1500
5,CN1c2ccc(NS(=O)(=O)c3ccc(C(F)(F)F)cc3)cc2N=C(c2ccc(C(=O)O)cc2)c2cc3c(cc21)C(C)(C)CCC3(C)C,1100
6,CN1c2ccc(NS(=O)(=O)Cc3ccccc3)cc2N=C(c2ccc(C(=O)O)cc2)c2cc3c(cc21)C(C)(C)CCC3(C)C,1000
7,COc1ccc(S(=O)(=O)Nc2ccc3c(c2)N=C(c2ccc(C(=O)O)cc2)c2cc4c(cc2N3C)C(C)(C)CCC4(C)C)cc1,470
8,CN1c2ccc(NS(=O)(=O)c3ccccc3C(F)(F)F)cc2N=C(c2ccc(C(=O)O)cc2)c2cc3c(cc21)C(C)(C)CCC3(C)C,1400
9,CCCN1c2ccc(NS(=O)(=O)CCC)cc2N=C(c2ccc(C(=O)O)cc2)c2cc3c(cc21)C(C)(C)CCC3(C)C,550
10,CCCS(=O)(=O)Nc1ccc2c(c1)N=C(c1ccc(C(=O)O)cc1)c1cc3c(cc1N2CC)C(C)(C)CCC3(C)C,340
11,CCCN1c2ccc(NS(=O)(=O)c3ccc(F)cc3)cc2N=C(c2ccc(C(=O)O)cc2)c2cc3c(cc21)C(C)(C)CCC3(C)C,130
12,CCNC(=O)Nc1ccc2c(c1)N=C(c1ccc(C(=O)O)cc1)c1cc3c(cc1N2C)C(C)(C)CCC3(C)C,7300
